Numbers after ± are expanded uncertainties.
Assays:
[1] = 101 kPa, Liquid, Vibrating tube method
[2] = xn = mol fraction of the nth substance listed; conditions: 101 kPa, Liquid, Vibrating tube method, x2 = 0.333

| Compound | mass density ([1]; 293.15 K) [kg/m3] | mass density ([1]; 303.15 K) [kg/m3] | mass density ([1]; 313.15 K) [kg/m3] | mass density ([1]; 323.15 K) [kg/m3] | mass density ([2]; 293.15 K) [kg/m3] | mass density ([2]; 303.15 K) [kg/m3] | mass density ([2]; 313.15 K) [kg/m3] | mass density ([2]; 323.15 K) [kg/m3] |
| --- | --- | --- | --- | --- | --- | --- | --- | --- |
| CO [methanol] | 792.6 ± 2 | 783 ± 2 | 773.5 ± 2 | 764 ± 2 |  |  |  |  |
| NC(N)=O [urea] + C[N+](C)(C)CCO.[Cl-] |  |  |  |  | 1199.7 ± 2 | 1194.2 ± 2 | 1188.6 ± 2 | 1183.2 ± 2 |

Source: the NIST ThermoML archive (doi:10.1016/j.jct.2018.04.010)
